Measurements taken from US20240294572A1, “Antimicrobial Peptides” (priority 2021, published 2024).
Converted amounts (≈) assume the structure as drawn. Non-standard residues stand in square brackets, D forms with d. Residues, ends and D or L forms follow the SMILES beside them. No end group written: not given here. *: point of attachment. Myristoyl = CCCCCCCCCCCCCC(=O)*; Lauroyl = CCCCCCCCCCCC(=O)*; Decanoyl = CCCCCCCCCC(=O)*; Octanoyl = CCCCCCCC(=O)*; Hexanoyl = CCCCCC(=O)*

Key:
Assay type in all cases: cell-based
S. aureus USA300 LAC [1] = test: Bacterial membrane permeation (propidium iodide); conditions: 12.5 μM
Procedure: The experiment was performed as described with minor modifications (Mishra, et al. (2019) Proc. Natl. Acad. Sci., 116:13517-13522). Serially diluted 10×peptides (10 μL each well) were created in 96-well microtiter plates. Propidium iodide (2 μL) at a fixed concentration of 20 μM was added to each well followed by 88 μL of the exponential phase S. aureus USA300 culture (a final OD600˜0.1 in TSB media or PBS). Both daptomycin (98%, TSZChem, MA) and rifamycin (98%, Alfa Aesar, MA) were used as controls. The plate was incubated at 37° C. with continuous shaking at 100 rpm in a FLUOstar® Omega (BMG LABTECH, NC) microplate reader. The samples fluorescence was read at every 5 minutes for 24 cycles with excitation and emission wavelengths of 584 and 620 nm, respectively. Plots were generated using average values from the experiments using GraphPad Prism 7.

E. coli ATCC 25922 = system: E. coli ATCC 25922
Procedure: (§1) The antibacterial activity of peptides was evaluated using a standard broth microdilution protocol (Clinical Laboratories Standards Institute (CLSI): M07-A10. Methods for Dilution Antimicrobial Susceptibility Tests for Bacteria that grow aerobically; Approved Standard, Tenth Edition, 2015) with minor modifications as described (Mishra, et al. (2019) Proc. Natl. Acad. Sci., 116:13517-13522). In brief, peptides (10 μL per well) with 2-fold dilutions were made in 96-well polystyrene microplates. Subsequently, the logarithmic phase bacterial cultures (i.e., optical density at 600 nm ˜0.5) were diluted to 0.001 OD and aliquoted to 90 μL per well. The plates were incubated overnight at 37°° C. Bacterial controls were treated with water, and the wells containing only the TSB media were used as blank. Positive controls included the parent peptide LL-37 as well as KR12. Post incubation, the plates were read at 630 nm using ChroMate® 4300 Microplate Reader (Awareness Technology, FL).
(§2) To study the influence of medium conditions on the antimicrobial activity of peptides against S. aureus USA300, different pH, sodium chloride (NaCl), human sera were included into the antibacterial assays. Control experiments in TSB without any additions (pH 7.4) were set up in the same manner. In addition, antimicrobial activities of human LL-37, KR12, and C10-KR8d were compared in 10%, 50%, and 100% TSB as well as in TSB and MHB using E. coli ATCC 25922 and S. aureus USA300 LAC.

S. aureus USA300 LAC [2] = conditions: USA300
Procedure: as §1, §2

P. aeruginosa PAO1 = system: P. aeruginosa PAO1
Procedure: as §1

[3] = system: Klebsiella pneumonia ATCC 13883; test: Antibacterial broth microdilution MIC
Procedure: as §1

[4] = system: human red blood cells (hRBCs); conditions: red cells of human, 1 h
Procedure: Hemolytic assays of peptides were performed as described (Lakshmaiah, et al. (2020) Proc. Natl. Acad. Sci., 117:19446-19454). Briefly, human red blood cells (hRBCs) were obtained from UNMC Blood Bank. The cells were washed 3× with isotonic saline (0.9% NaCl) and diluted to 2% (v/v). Peptides at various concentrations were added to the 2% blood cells and incubated at 37° C. for 1 hour. Post-incubation, the plates were spun at 2000 rpm for 10 minutes; aliquots of the supernatant were carefully transferred to a fresh 96-well microplate. The amount of cells lysed is proportional to the hemoglobin released and was measured at 545 nm using a ChroMate® microplate reader (Awareness Technology, FL). The percent lysis was calculated by assuming 100% release when human blood cells were treated with 1% Triton™ X-100, and 0% release when incubated with PBS. The peptide concentration that caused 50% lysis of hRBCs is defined as HC50. The cell selectivity index (CSI) was calculated as the ratio between HC50 and the MIC of the corresponding peptide against MRSA.

S. aureus USA300 = test: Bacterial membrane depolarization (DiBAC4(3)); conditions: 3.1, 6.25, 12.5, and 25 μM; 40 minutes
Procedure: The experiment was conducted as described (Marks, et al. (2013) PLOS One 8:e63158). In brief, an overnight culture of S. aureus USA300 was subcultured in a fresh TSB medium and grown to the exponential phase. Cells were spun using centrifugation, washed 2× with PBS, resuspended in twice the volume of PBS containing 25 mM glucose, and incubated at 37° C. for 15 minute. For membrane depolarization measurements, 500 nM (final concentration) of the dye DiBAC4 (3) bis(1,3-dibutylbarbituric acid) trimethine oxonol (ANASPEC, CA) was added, and the reaction mixture was vortexed gently. Aliquots of 90 μL of the energized bacteria solution were loaded to the wells, and the plate was fed into a FLUOstar® Omega microplate reader. Fluorescence was read for 20 minutes at excitation and emission wavelengths of 485 and 520 nm, respectively, to get dye normalization. Then, 10 μL of the peptide solution was added and gently mixed. Fluorescence readings were recorded for 40 minutes, where Triton™ X-100 (0.1%) was used as a positive control.

S. aureus Mu50 = system: S. aureus Mu50
Procedure: as §1

S. aureus USA400 = system: S. aureus USA400
Procedure: as §1

S. aureus Newman = system: S. aureus Newman
Procedure: as §1

S. aureus USA200 = system: S. aureus USA200
Procedure: as §1

Molecule | MIC (μM) EC (E. coli ATCC 25922) [µM] | MIC (μM) SA (S. aureus USA300 LAC [2]) [µM] | MIC (μM) PA (P. aeruginosa PAO1) [µM] | MIC (μM) KP [3] [µM] | HC50 [4] [µM] | other results
CO[C@H]1/C=C/O[C@@]2(C)Oc3c(C)c(O)c4c(O)c(cc(O)c4c3C2=O)NC(=O)/C(C)=C\C=C\[C@H](C)[C@H](O)[C@@H](C)[C@@H](O)[C@@H](C)[C@H](OC(C)=O)[C@@H]1C [rifamycin, reference compound] |  |  |  |  |  | membrane permeation (propidium iodide fluorescence) (S. aureus USA300 LAC [1]): unable to achieve the same effect
CCCCCC(=O)N[C@@H](CCCCN)C(=O)N[C@@H](CCCNC(=N)N)C(=O)N[C@H](C(=O)N[C@@H](Cc1c[nH]c2ccccc12)C(=O)N[C@@H](CCC(N)=O)C(=O)N[C@@H](CCCNC(=N)N)C(=O)N[C@H](C(=O)N[C@@H](CCCCN)C(=O)N[C@@H](CC(=O)O)C(=O)N[C@@H](Cc1ccccc1)C(N)=O)[C@@H](C)CC)[C@@H](C)CC [Peptide C6-KR10] (Hexanoyl-KRIWQRIKDF-NH2) | 50 (≈ 74.3 µg/mL) | 25 (≈ 37.2 µg/mL) | 50 (≈ 74.3 µg/mL) | >50 | >200 | 
CCCCCCCCCCCC(=O)N[C@@H](CCCCN)C(=O)N[C@@H](CCCNC(=N)N)C(=O)N[C@H](C(=O)N[C@@H](Cc1c[nH]c2ccccc12)C(=O)N[C@@H](CCC(N)=O)C(=O)N[C@@H](CCCNC(=N)N)C(=O)N[C@H](C(=O)N[C@@H](CCCCN)C(=O)N[C@@H](CC(=O)O)C(=O)N[C@@H](Cc1ccccc1)C(=O)N[C@@H](CC(C)C)C(=O)N[C@@H](CCCNC(=N)N)C(N)=O)[C@@H](C)CC)[C@@H](C)CC [Peptide C12-KR12] (Lauroyl-KRIWQRIKDFLR-NH2) | >50 | 6.2 (≈ 11.4 µg/mL) | >50 | 12.5 (≈ 23 µg/mL) | <25 | 
CCCCCCCCCC(=O)N[C@@H](Cc1c[nH]c2ccccc12)C(=O)N[C@H](CC(N)=O)C(=O)N[C@@H](CC(=O)O)C(=O)N[C@@H]1C(=O)NCC(=O)N[C@@H](CCCN)C(=O)N[C@@H](CC(=O)O)C(=O)N[C@H](C)C(=O)N[C@@H](CC(=O)O)C(=O)NCC(=O)N[C@H](CO)C(=O)N[C@@H]([C@H](C)CC(=O)O)C(=O)N[C@@H](CC(=O)c2ccccc2N)C(=O)O[C@@H]1C [daptomycin, reference compound] |  |  |  |  |  | membrane depolarization ability (order) (S. aureus USA300): Triton™ X-100>17BIPHE2>C10-KR8d>daptomycin
CCCCCCCC(=O)N[C@H](CCCCN)C(=O)N[C@H](CCCNC(=N)N)C(=O)N[C@@H](C(=O)N[C@H](Cc1c[nH]c2ccccc12)C(=O)N[C@H](CCC(N)=O)C(=O)N[C@H](CCCNC(=N)N)C(=O)N[C@@H](C(=O)N[C@H](CCCCN)C(=O)N[C@H](CC(=O)O)C(=O)N[C@H](Cc1ccccc1)C(N)=O)[C@H](C)CC)[C@H](C)CC [Peptide C8-KR10d] (Octanoyl-[dK][dR][dI][dW][dQ][dR][dI][dK][dD][dF]-NH2) | 6.2 (≈ 9.39 µg/mL) |  |  | 12.5 (≈ 18.9 µg/mL) | 150 | Minimal inhibitory concentration, Mu50 (S. aureus Mu50): 3.1 µM (≈ 4.7 µg/mL); Minimal inhibitory concentration, USA400 (S. aureus USA400): 3.1 µM (≈ 4.7 µg/mL); Minimal inhibitory concentration, Newman (S. aureus Newman): 3.1 µM (≈ 4.7 µg/mL); Minimal inhibitory concentration, USA200 (S. aureus USA200): 3.1 µM (≈ 4.7 µg/mL)
CCCCCC(=O)N[C@@H](CCCCN)C(=O)N[C@@H](CCCNC(=N)N)C(=O)N[C@H](C(=O)N[C@@H](Cc1c[nH]c2ccccc12)C(=O)N[C@@H](CCC(N)=O)C(=O)N[C@@H](CCCNC(=N)N)C(N)=O)[C@@H](C)CC [Peptide C6-KR6] (Hexanoyl-KRIWQR-NH2) | >50 | >50 | >50 | >50 | >200 | 
CCCCCC(=O)N[C@@H](CCCCN)C(=O)N[C@@H](CCCNC(=N)N)C(=O)N[C@H](C(=O)N[C@@H](Cc1c[nH]c2ccccc12)C(=O)N[C@@H](CCC(N)=O)C(=O)N[C@@H](CCCNC(=N)N)C(=O)N[C@H](C(=O)N[C@@H](CCCCN)C(N)=O)[C@@H](C)CC)[C@@H](C)CC [Peptide C6-KR8] (Hexanoyl-KRIWQRIK-NH2) | >50 | >50 | >50 | >50 | >200 | 
CCCCCCCCCCCCCC(=O)N[C@@H](CCCCN)C(=O)N[C@@H](CCCNC(=N)N)C(=O)N[C@H](C(=O)N[C@@H](Cc1c[nH]c2ccccc12)C(N)=O)[C@@H](C)CC [Peptide C14-KR4] (Myristoyl-KRIW-NH2) | 12.5 to 50 | 3.1 (≈ 2.51 µg/mL) | 6.2 (≈ 5.03 µg/mL) | 12.5 (≈ 10.1 µg/mL) | <25 | 
KRIVQRIKDFLR-NH2 [KR12, reference compound] | 50 |  | 25 | >50 | >340 | Minimal inhibitory concentration against E. coli, 10% TSB (E. coli ATCC 25922): 1.6 µM; Minimal inhibitory concentration against E. coli, 50% TSB (E. coli ATCC 25922): 3.1 µM; Minimal inhibitory concentration against E. coli, 100% MHB (E. coli ATCC 25922): >50 µM; Minimal inhibitory concentration against S. aureus, 10% TSB (S. aureus USA300 LAC [2]): 6.2 µM; Minimal inhibitory concentration against S. aureus, 50% TSB (S. aureus USA300 LAC [2]): >50 µM; Minimal inhibitory concentration against S. aureus, 100% MHB (S. aureus USA300 LAC [2]): >50 µM; Minimal inhibitory concentration against S. aureus, 100% TSB (S. aureus USA300 LAC [2]): >50 µM
CCCCCCCCCC(=O)N[C@@H](CCCCN)C(=O)N[C@@H](CCCNC(=N)N)C(=O)N[C@H](C(=O)N[C@@H](Cc1c[nH]c2ccccc12)C(=O)N[C@@H](CCC(N)=O)C(=O)N[C@@H](CCCNC(=N)N)C(=O)N[C@H](C(=O)N[C@@H](CCCCN)C(=O)N[C@@H](CC(=O)O)C(=O)N[C@@H](Cc1ccccc1)C(=O)N[C@@H](CC(C)C)C(=O)N[C@@H](CCCNC(=N)N)C(N)=O)[C@@H](C)CC)[C@@H](C)CC [Peptide C10-KR12] (Decanoyl-KRIWQRIKDFLR-NH2) | >50 | 3.1 (≈ 5.62 µg/mL) | 25 (≈ 45.3 µg/mL) | 6.2 to 12.5 | <25 | 
